The source of these data is patent US20260022143A1, “Cyclic Peptide Inhibitors of IL-23” (JANSSEN PHARMACEUTICA NV, priority 2022, published 2026).

In data set [1] the target is T1, IL-23R (Homo sapiens, UniProt Q5VWK5).
T1 construct: host or cells: HEK293
T1 sequence (Q5VWK5 24-629): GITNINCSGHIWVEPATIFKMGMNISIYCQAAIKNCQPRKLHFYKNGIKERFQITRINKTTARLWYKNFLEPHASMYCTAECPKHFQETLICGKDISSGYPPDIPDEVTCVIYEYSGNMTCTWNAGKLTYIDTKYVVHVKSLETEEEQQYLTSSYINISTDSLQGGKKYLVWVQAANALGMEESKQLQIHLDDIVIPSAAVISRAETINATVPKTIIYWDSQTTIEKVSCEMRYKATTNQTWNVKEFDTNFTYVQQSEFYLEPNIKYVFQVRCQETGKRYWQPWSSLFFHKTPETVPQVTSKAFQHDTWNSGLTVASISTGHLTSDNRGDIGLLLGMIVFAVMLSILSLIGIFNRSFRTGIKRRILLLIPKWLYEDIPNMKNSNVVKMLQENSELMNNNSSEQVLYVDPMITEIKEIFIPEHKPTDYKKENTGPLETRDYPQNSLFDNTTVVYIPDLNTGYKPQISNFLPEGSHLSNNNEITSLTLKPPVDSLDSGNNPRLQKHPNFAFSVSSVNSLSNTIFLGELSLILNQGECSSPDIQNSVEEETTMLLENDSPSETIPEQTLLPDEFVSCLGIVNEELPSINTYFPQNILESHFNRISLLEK
The experiment in a line: IL23R Reporter Assay. It counts as cell-based. The following applies: HEK293 cells containing IL-23R, IL-12RP1 and STAT-inducible firefly luciferase reporter; 10 ng/mL IL-23 (EC90); 5 h at 37° C.; read-out: IL23R Reporter Assay.

Data set [2] is described as follows: Exposed Polar Surface Area (EPSA). It counts as physicochemical. The following applies: SFC on Chirex 3014 column; sample 1 mM DMSO stock; read-out: EPSA. Summed up:
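SFC retention on a Chirex 3014 (S)-valine/(R)-1-(α-naphthyl)ethylamine column, 35 °C, CO2 with MeOH (20 mM ammonium formate) gradient 5–60% at 20%/min, 14 MPa outlet. Retention times converted to EPSA (Å^2) via linear calibration with 8 standards; samples from 1 mM DMSO stock, run in duplicate.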

Starred links: 1 amine or outer side, 2 acyl side, 3 side chain; linkers in the order of their positions; H or OH if unused. Positions of bridges follow the written chain, without caps; N, C: chain ends. Non-standard residues stand in square brackets, D forms with d. Residues, ends and D or L forms follow the SMILES beside them. *: point of attachment. X64 = C[N+]1(C)CCN(c2ccc(C[C@H](N[*:1])C(=O)[*:2])cc2)CC1; Me3N+(CH2)2O(CH2)2O(CH2)2CO = C[N+](C)(C)CCOCCOCCC(=O)*; Trp(7-Me) = Cc1cccc2c(C[C@H](N)C(=O)O)c[nH]c12; X47 = C[N+]1(C)CC[N+]2(CCN(CC*)CC2)CC1; 2Nal = N[C@@H](Cc1ccc2ccccc2c1)C(=O)O; X50 = CCCC[N+](CCCC)(CCCC)CCOCCOCC*; X45 = COCC[N+](C)(C)CCc1cn(CC*)nn1; X26 = C[N+](C)(C)CCCCc1cn(CC*)nn1; 3Pal = N[C@@H](Cc1cccnc1)C(=O)O; X14 = C[N+](C)(C)CCc1cn(CC*)nn1; Lys(Me) = CNCCCC[C@H](N)C(=O)O; Pen = CC(C)(S)[C@H](N)C(=O)O; Thp = NC1(C(=O)O)CCOCC1; Sar = CNCC(=O)O

As to `CC(=O)NCCCC[C@@H]1NC(=O)[C@H](Cc2c[nH]c3c(C)cccc23)NC(=O)[C@H]([C@@H](C)O)NC(=O)[C@H](CC(N)=O)NC(=O)[C@@H](NC(C)=O)C(C)(C)SSC(C)(C)[C@@H](C(=O)N[C@@H](Cn2cc(CC[N+](C)(C)C)nn2)C(=O)N[C@@H](Cc2ccc3ccccc3c2)C(=O)NC2(C(=O)N[C@@H](CCCCNC(C)=O)C(=O)N[C@@H](CC(N)=O)C(=O)N[C@@H](Cc3cccnc3)C(=O)N(C)CC(N)=O)CCOCC2)NC1=O` [compound 253], the IC50 in data set [1] was 40 nM. Further, the EPSA in data set [2] is 146 A^2.
For `CC(=O)NCCCC[C@@H]1NC(=O)[C@H](Cc2c[nH]c3c(C)cccc23)NC(=O)[C@H]([C@@H](C)O)NC(=O)[C@H](CC(N)=O)NC(=O)[C@@H](NC(C)=O)C(C)(C)SSC(C)(C)[C@@H](C(=O)N[C@@H](Cc2ccc(OCCn3cc(CCCC[N+](C)(C)C)nn3)cc2)C(=O)N[C@@H](Cc2ccc3ccccc3c2)C(=O)NC2(C(=O)N[C@@H](CCCCNC(C)=O)C(=O)N[C@@H](CC(N)=O)C(=O)N[C@@H](Cc3cccnc3)C(=O)N(C)CC(N)=O)CCOCC2)NC1=O` [compound 258] (Ac-[Pen]NT[Trp(7-Me)]K(Ac)[Pen]Y(X26)[2Nal][Thp]K(Ac)N[3Pal][Sar]-NH2; disulfide 1-6 (inferred)), the IC50 in data set [1] was found to be 6.9 nM. In data set [2], the EPSA was 151 A^2.
The matching figures for `CCCC[N+](CCCC)(CCCC)CCOCCOCCOc1ccc(C[C@H](NC(=O)[C@H]2NC(=O)[C@H](CCCCN(C)C(C)=O)NC(=O)[C@H](Cc3c[nH]c4c(C)cccc34)NC(=O)[C@H]([C@@H](C)O)NC(=O)[C@H](CC(=O)N(C)C)NC(=O)[C@@H](NC(=O)CCOCCOCC[N+](C)(C)C)C(C)(C)SSC2(C)C)C(=O)N[C@@H](Cc2ccc3ccccc3c2)C(=O)NC2(C(=O)N[C@@H](CCCCN(C)C(C)=O)C(=O)N[C@@H](CC(N)=O)C(=O)N[C@@H](Cc3cccnc3)C(=O)N(C)CC(=O)N(C)C)CCOCC2)cc1` [compound 263, cPEG3aCO-Pen(3)-N(N(Me)2)-T-7MeW-K(NMeAc)-Pen(3)-TBAPEG3F-2Nal-THP-K(NMeAc)-N-3Pya-Sar-CON(Me)2] ({Me3N+(CH2)2O(CH2)2O(CH2)2CO}-[Pen]D(NMe2)T[Trp(7-Me)][Lys(Me)](Ac)[Pen]Y(X50)[2Nal][Thp][Lys(Me)](Ac)N[3Pal][Sar]-NMe2; disulfide 1-6 (inferred)): 5 nM and 140 A^2.
Regarding `CC(=O)N(C)CCCC[C@@H]1NC(=O)[C@H](Cc2c[nH]c3c(C)cccc23)NC(=O)[C@H]([C@@H](C)O)NC(=O)[C@H](CC(=O)N(C)C)NC(=O)[C@@H](NC(=O)CCOCCOCC[N+](C)(C)C)C(C)(C)SSC(C)(C)[C@@H](C(=O)NC(Cc2ccc(OCCN(CCOCC[N+](C)(C)C)CCOCC[N+](C)(C)C)cc2)C(=O)N[C@@H](Cc2ccc3ccccc3c2)C(=O)NC2(C(=O)N[C@@H](CCCCN(C)C(C)=O)C(=O)N[C@@H](CC(N)=O)C(=O)N[C@@H](Cc3cccnc3)C(=O)N(C)CC(=O)N(C)C)CCOCC2)NC1=O` (stereo partly drawn) [compound 265, cPEG3aCO-Pen(3)-N(N(Me)2)-T-7MeW-K(NMeAc)-Pen(3)-AEF(BisPEG2a)(RS)-2Nal-THP-K(NMeAc)-N-3Pya-Sar-CON(Me)2], the IC50 in data set [1] was determined as 6.4 nM. The EPSA in data set [2] was 159 A^2.
For `CC(=O)N(C)CCCC[C@@H]1NC(=O)[C@H](Cc2c[nH]c3c(C)cccc23)NC(=O)[C@H]([C@@H](C)O)NC(=O)[C@H](CC(=O)N(C)C)NC(=O)[C@@H](NC(=O)CCOCCOCC[N+](C)(C)C)C(C)(C)SSC(C)(C)[C@@H](C(=O)N[C@@H](Cc2ccc(OCCN3CC[N+]4(CC3)CC[N+](C)(C)CC4)cc2)C(=O)N[C@@H](Cc2ccc3ccccc3c2)C(=O)NC2(C(=O)N[C@@H](CCCCN(C)C(C)=O)C(=O)N[C@@H](CC(N)=O)C(=O)N[C@@H](Cc3cccnc3)C(=O)N(C)CC(=O)N(C)C)CCOCC2)NC1=O` [compound 269, cPEG3aCO-Pen(3)-N(N(Me)2)-T-7MeW-K(NMeAc)-Pen(3)-DMTASF-2Nal-THP-K(NMeAc)-N-3Pya-Sar-CON(Me)2] ({Me3N+(CH2)2O(CH2)2O(CH2)2CO}-[Pen]D(NMe2)T[Trp(7-Me)][Lys(Me)](Ac)[Pen]Y(X47)[2Nal][Thp][Lys(Me)](Ac)N[3Pal][Sar]-NMe2; disulfide 1-6), the IC50 in data set [1] stood at 1.4 nM. Moreover, the EPSA in data set [2] amounted to 167 A^2.
On the same counts, the results for `CC(=O)N(C)CCCC[C@@H]1NC(=O)[C@H](Cc2c[nH]c3c(C)cccc23)NC(=O)[C@H]([C@@H](C)O)NC(=O)[C@H](CC(=O)N(C)C)NC(=O)[C@@H](NC(=O)CCOCCOCC[N+](C)(C)C)C(C)(C)SSC(C)(C)[C@@H](C(=O)N[C@@H](Cc2ccc(N3CC[N+](C)(C)CC3)cc2)C(=O)N[C@@H](Cc2ccc3ccccc3c2)C(=O)NC2(C(=O)N[C@@H](CCCCN(C)C(C)=O)C(=O)N[C@@H](CC(N)=O)C(=O)N[C@@H](Cc3cccnc3)C(=O)N(C)CC(=O)N(C)C)CCOCC2)NC1=O` [compound 273, cPEG3aCO-Pen(3)-N(N(Me)2)-T-7MeW-K(NMeAc)-Pen(3)-PiperazinequatF-2Nal-THP-K(NMeAc)-N-3Pya-Sar-CON(Me)2] ({Me3N+(CH2)2O(CH2)2O(CH2)2CO}-[Pen]D(NMe2)T[Trp(7-Me)][Lys(Me)](Ac)[Pen][X64][2Nal][Thp][Lys(Me)](Ac)N[3Pal][Sar]-NMe2; disulfide 1-6) are 2.6 nM and 157 A^2.
Turning to `COCC[N+](C)(C)CCc1cn(CCOc2ccc(C[C@H](NC(=O)[C@H]3NC(=O)[C@H](CCCCN(C)C(C)=O)NC(=O)[C@H](Cc4c[nH]c5c(C)cccc45)NC(=O)[C@H]([C@@H](C)O)NC(=O)[C@H](CC(=O)N(C)C)NC(=O)[C@@H](NC(=O)CCOCCOCC[N+](C)(C)C)C(C)(C)SSC3(C)C)C(=O)N[C@@H](Cc3ccc4ccccc4c3)C(=O)NC3(C(=O)N[C@@H](CCCCN(C)C(C)=O)C(=O)N[C@@H](CC(N)=O)C(=O)N[C@@H](Cc4cccnc4)C(=O)N(C)CC(=O)N(C)C)CCOCC3)cc2)nn1` [compound 285, cPEG3aCO-Pen(3)-N(N(Me)2)-T-7MeW-K(NMeAc)-Pen(3)-Y(OTzlChmPEG)-2Nal-THP-K(NMeAc)-N-3Pya-Sar-CON(Me)2] ({Me3N+(CH2)2O(CH2)2O(CH2)2CO}-[Pen]D(NMe2)T[Trp(7-Me)][Lys(Me)](Ac)[Pen]Y(X45)[2Nal][Thp][Lys(Me)](Ac)N[3Pal][Sar]-NMe2; disulfide 1-6), the IC50 in data set [1] is 3.8 nM. For the same compound, in data set [2], the EPSA stood at 148 A^2.
Regarding `CC(=O)N(C)CCCC[C@@H]1NC(=O)[C@H](Cc2c[nH]c3c(C)cccc23)NC(=O)[C@H]([C@@H](C)O)NC(=O)[C@H](CC(=O)N(C)C)NC(=O)[C@@H](NC(=O)CCOCCOCC[N+](C)(C)C)C(C)(C)SSC(C)(C)[C@@H](C(=O)N[C@@H](Cc2ccc(OCCn3cc(CC[N+](C)(C)C)nn3)cc2)C(=O)N[C@@H](Cc2ccc3ccccc3c2)C(=O)NC2(C(=O)N[C@@H](CCCCN(C)C(C)=O)C(=O)N[C@@H](CC(N)=O)C(=O)N[C@@H](Cc3cccnc3)C(=O)N(C)CC(=O)N(C)C)CCOCC2)NC1=O` [compound 286, cPEG3aCO-Pen(3)-N(N(Me)2)-T-7MeW-K(NMeAc)-Pen(3)-Y(OTzlCh)-2Nal-THP-K(NMeAc)-N-3Pya-Sar-CON(Me)2] ({Me3N+(CH2)2O(CH2)2O(CH2)2CO}-[Pen]D(NMe2)T[Trp(7-Me)][Lys(Me)](Ac)[Pen]Y(X14)[2Nal][Thp][Lys(Me)](Ac)N[3Pal][Sar]-NMe2; disulfide 1-6), the IC50 in data set [1] was found to be 3.2 nM. The EPSA in data set [2] was 149 A^2.
Regarding `COCC[N+](C)(C)CCc1cn(C[C@H](NC(=O)[C@H]2NC(=O)[C@H](CCCCN(C)C(C)=O)NC(=O)[C@H](Cc3c[nH]c4c(C)cccc34)NC(=O)[C@H]([C@@H](C)O)NC(=O)[C@H](CC(=O)N(C)C)NC(=O)[C@@H](NC(=O)CCOCCOCC[N+](C)(C)C)C(C)(C)SSC2(C)C)C(=O)N[C@@H](Cc2ccc3ccccc3c2)C(=O)NC2(C(=O)N[C@@H](CCCCN(C)C(C)=O)C(=O)N[C@@H](CC(N)=O)C(=O)N[C@@H](Cc3cccnc3)C(=O)N(C)CC(=O)N(C)C)CCOCC2)nn1` [compound 288, cPEG3aCO-Pen(3)-N(N(Me)2)-T-7MeW-K(NMeAc)-Pen(3)-TzlChmPEG-2Nal-THP-K(NMeAc)-N-3Pya-Sar-CON(Me)2], the IC50 in data set [1] stood at 24 nM. The EPSA in data set [2] worked out at 144 A^2.
With `COCCOCCOCC[N+](C)(C)CCc1cn(C[C@H](NC(=O)[C@H]2NC(=O)[C@H](CCCCN(C)C(C)=O)NC(=O)[C@H](Cc3c[nH]c4c(C)cccc34)NC(=O)[C@H]([C@@H](C)O)NC(=O)[C@H](CC(=O)N(C)C)NC(=O)[C@@H](NC(=O)CCOCCOCC[N+](C)(C)C)C(C)(C)SSC2(C)C)C(=O)N[C@@H](Cc2ccc3ccccc3c2)C(=O)NC2(C(=O)N[C@@H](CCCCN(C)C(C)=O)C(=O)N[C@@H](CC(N)=O)C(=O)N[C@@H](Cc3cccnc3)C(=O)N(C)CC(=O)N(C)C)CCOCC2)nn1` [compound 289, cPEG3aCO-Pen(3)-N(N(Me)2)-T-7MeW-K(NMeAc)-Pen(3)-TzlChmPEG3-2Nal-THP-K(NMeAc)-N-3Pya-Sar-CON(Me)2], the IC50 in data set [1] was 79 nM. Also, in data set [2], the EPSA is 142 A^2.
